{
  "source": "paper PMC6005845",
  "about": "(Frontiers in Cardiovascular Medicine, 2018)",
  "key": {"APOE*3Leiden.CETP mice [1]": {"system": "APOE*3Leiden.CETP mice", "assay": "Hepatic lipid content by HPTLC", "assay_type": "in vivo", "settings": "16 weeks", "experimental": "(§1) Pouwer et al Supplementary material\n(§2) HDL-C was measured after precipitation as described previously20. The distribution of […]\n(§3) protein liquid chromatography (FPLC)9. The inflammatory markers SAA, E-selectin and MCP- […]\n(§4) according to the manufacturer’s instruction. Plasma ALT and AST were determined using a […]\n(§5) group at 2 and 15 weeks18.\n(§6) Straubenhardt, Germany).21\n(§7) BAL and urinary albumin:creatinin […]\n(§8) catheter to collect broncho-alveolar lavage (BAL) fluid. Protein and albumin content in BAL […]\n(§9) the mouse albumin ELISA kit (ALPCO, Salem, USA). Urinary albumin and creatinin levels […]\n(§10) kit (Exocell, Philadelphia, USA) according to manufacturer’s instruction."}, "APOE*3Leiden.CETP mice [2]": {"system": "APOE*3Leiden.CETP mice", "assay": "Plasma cholesterol, triglycerides and HDL-C in the atherosclerosis study", "assay_type": "in vivo", "settings": "for reduction of average plasma cholesterol compared to control: p < 0.001; for change of HDL-C vs control: at 16 weeks of treatment", "experimental": "Pouwer et al Supplementary material plasma lipids and a minimal effect of treatment of 30%, resulting in 15 animals per group.\nAnimal experiments were approved by the Institutional Animal Care and Use Committee of The Netherlands Organization for Applied Research under registration number 3557. […]\nBiochemical analyses and blood pressure\nEDTA plasma samples were collected throughout the study. Plasma cholesterol and triglycerides were determined every 4 weeks using enzymatic kits (Roche/Hitachi) according […]\nas §2, §3, §4\ngroup at 2 and 15 weeks18. […]"}, "CML": {"system": "CML", "settings": "cited from earlier work"}, "APOE*3Leiden.CETP mice [3]": {"system": "APOE*3Leiden.CETP mice", "assay": "Plaque composition and lesion stability index in severe (type IV-V) lesions", "assay_type": "in vivo", "settings": "16 weeks", "experimental": "The macrophage and necrosis content were quantified as factors that decrease plaque stability, and smooth muscle cell area in the cap of the lesions and collagen as factors that improve plaque stability ([17, 35, 36]) (Figure 6A). […]\nµm thick with intervals of 50 µm) were taken and mounted on AAS-coated slides. These sections were stained with hematoxylin-phloxine-saffron (HPS) for histological analysis. For each mouse, atherosclerosis was measured in 4 subsequent cross sections. Each section consisted of 3 segments. The average total lesion area per cross section was then calculated20\n22. For determination of lesion severity the lesions were classified into five categories according to the American Heart Association classification 23: 0) no lesion I) early fatty streak, II) regular fatty streak, III) mild plaque, IV) moderate plaque, and V) severe plaque. The percentage of each lesion type was calculated, where type I-III lesions were classified as mild lesions and type IV-V lesions were classified as severe lesions 20 22. In the aortic root, lesion composition was determined for the severe lesions (type IV -V) as a percentage of lesion area after immunostaining with anti-human alpha-actin (1:400; PROGEN Biotechnik GmbH, Germany) for smooth muscle cells (SMC), and anti -mouse Mac-3 (1:50; BD Pharmingen, the Netherlands) for macrophages followed by Sirius Red staining. After Sirius Red staining for collagen, color intensity was determined in ImageJ and the used threshold was confirmed by evaluation of the sections under polarized light 24. Necrotic area and cholesterol clefts were measured after HPS staining13 20 22. Lesion stability index was calculated as described pre viously13 20. […]"}, "[4]": {"settings": "QD, cited from earlier work"}, "factor VIIa": {"system": "factor VIIa", "assay": "Factor VIIa activity in plasma", "assay_type": "in vivo, APOE*3Leiden.CETP mice", "settings": "30 mg/kg QD, at 4 weeks, p < 0.001", "description": "as §1\n(§11) Dickinson, Franklin Lakes, New Jersey, USA). After 12 weeks of treatment, peripheral blood\n(§12) CD11b+/Ly6Chigh monocytes. The following conjugated monoclonal antibodies, all from\n(§13) Coagulation factor VII and VIIa\n(§14) (Diagnostica Stago Inc. Parsippany, N J). For the determination of total clotting FVII an one\n(§15) Histological assessment of lung morphology and atherosclerosis\n(§16) The caudal lung was cross\n(§17) direction of the aortic arch."}, "E-selectin": {"system": "E-selectin", "assay": "Plasma E-selectin ELISA", "assay_type": "in vivo, APOE*3Leiden.CETP mice", "settings": "after 16 weeks of treatment", "description": "Pouwer et al Supplementary material […]\nThe inflammatory markers SAA, E-selectin and MCP-\naccording to the manufacturer’s instruction. […]"}, "factor VII": {"system": "factor VII", "assay": "Total factor VII coagulant activity in plasma", "assay_type": "in vivo, APOE*3Leiden.CETP mice", "description": "as §1, §11, §12, §13, §14, §15, §16, §17"}, "[5]": {"settings": "for Body weight / Food intake: after 16 weeks; for Food intake: per cage", "description": "Female APOE*3Leiden.CETP transgenic mice (9 to 14 weeks of age) from the SPF breeding stock at TNO-Metabolic Health Research (TNO-Leiden) were used in this study. Females were used because they are more responsive to dietary cholesterol and fat than males. APOE*3Leiden females have a higher VLDL production ([20]) than males resulting in higher plasma total cholesterol (TC) and triglyceride (TG) levels and more pronounced development of atherosclerosis ([21, 22]). […] Body weight, food intake and clinical signs of behavior were monitored regularly during the study. Animal experiments were approved by the Institutional Animal Care and Use Committee of The Netherlands Organization for Applied Research under registration number 3557."}, "APOE*3Leiden.CETP mice [6]": {"system": "APOE*3Leiden.CETP mice", "assay": "Lung vascular integrity: histology, wet/dry weight ratio, protein in BAL fluid", "assay_type": "in vivo", "experimental": "as §1, §2, §3, §4, §5, §6, §7, §8, §9, §10\nDickinson, Franklin Lakes, New Jersey, USA). After 12 weeks of treatment, peripheral blood […]\nCD11b+/Ly6Chigh monocytes. The following conjugated monoclonal antibodies, all from […]\nas §13\n(Diagnostica Stago Inc. Parsippany, N J). For the determination of total clotting FVII an one […]\nHistological assessment of lung morphology and atherosclerosis […]\nThe caudal lung was cross […]\nas §17"}},
  "note": "Like-named read-outs stand apart in the source and are kept apart here.",
  "data": [
    {"smiles": "Cc1ccc(NC(=O)c2ccc(CN3CCN(C)CC3)cc2)cc1Nc1nccc(-c2cccnc2)n1", "note": "[Imatinib, imatinib]", "values": [
      {"measurement": "change of hepatic cholesterol ester content vs control", "setting": "APOE*3Leiden.CETP mice [1]; 150 mg/kg BID, p = 0.001", "value": "−30", "unit": "%"},
      {"measurement": "reduction of average plasma cholesterol compared to control", "setting": "APOE*3Leiden.CETP mice [2]; 150 mg/kg BID, 16 week study", "value": 69, "unit": "%"},
      {"measurement": "reduction of average plasma triglyceride levels compared to control", "setting": "APOE*3Leiden.CETP mice [2]; 150 mg/kg BID, 16 week study, p = 0.019", "value": 36, "unit": "%"},
      {"measurement": "relapses in treated patients", "setting": "CML", "value": "up to 17%"},
      {"measurement": "increase of collagen content of severe lesions vs control", "setting": "APOE*3Leiden.CETP mice [3]; 150 mg/kg BID, p = 0.004", "value": 47, "unit": "%"},
      {"measurement": "change of αSMC content vs control", "setting": "APOE*3Leiden.CETP mice [3]; 150 mg/kg BID, p = 0.050 (tended to increase)", "value": "+38%"},
      {"measurement": "collagen content (percentage of total plaque area)", "setting": "APOE*3Leiden.CETP mice [3]; 150 mg/kg BID, type IV-V lesions", "value": "62 ± 17", "unit": "%"}
    ]},
    {"smiles": "Cc1cn(-c2cc(NC(=O)c3ccc(C)c(Nc4nccc(-c5cccnc5)n4)c3)cc(C(F)(F)F)c2)cn1", "note": "[Nilotinib, nilotinib]", "values": [
      {"measurement": "AUC0–24", "setting": "[4]; CML-patients, repeated dose, dose 400–1,200 (mg)", "value": "36000 ± 11800", "unit": "ng·h/mL"},
      {"measurement": "AUC0–24", "setting": "[4]; healthy subjects, single, dose 400 (mg)", "value": "14700 ± 5000", "unit": "ng·h/mL"},
      {"measurement": "effect on plasma lipid levels", "setting": "APOE*3Leiden.CETP mice [2]; 10 and 30 mg/kg QD, 16 week study, vs control", "value": "no significant effect"},
      {"measurement": "increase of the activity of FVIIa in plasma vs control", "setting": "factor VIIa", "value": 82, "unit": "%"},
      {"measurement": "E-selectin", "setting": "E-selectin; 10 mg/kg QD", "value": "79 ± 23", "unit": "ng/mL"},
      {"measurement": "E-selectin", "setting": "E-selectin; 30 mg/kg QD", "value": "99 ± 17", "unit": "ng/mL"},
      {"measurement": "change of collagen content vs control", "setting": "APOE*3Leiden.CETP mice [3]; 10 mg/kg, p = 0.003", "value": "−32", "unit": "%"},
      {"measurement": "change of lesion stability index vs control", "setting": "APOE*3Leiden.CETP mice [3]; 10 mg/kg, p = 0.003", "value": "−43", "unit": "%"}
    ]},
    {"smiles": "Cc1ccc(C(=O)Nc2ccc(CN3CCN(C)CC3)c(C(F)(F)F)c2)cc1C#Cc1cnc2cccnn12", "note": "[Ponatinib, ponatinib]", "values": [
      {"measurement": "change of total factor VII coagulant activity (FVII) in plasma vs control", "setting": "factor VII; 3 mg/kg QD, after 12 weeks, p = 0.07", "value": "+28%"},
      {"measurement": "change of total factor VII coagulant activity (FVII) in plasma vs control", "setting": "factor VII; 10 mg/kg QD, after 4 weeks, p < 0.001", "value": "+265%"},
      {"measurement": "AUC0–24", "setting": "[4]; CML-patients, repeated dose, dose 15–60 (mg)", "value": 1300, "unit": "ng·h/mL"},
      {"measurement": "AUC0–24", "setting": "[4]; CML-patients, single, dose 60 (mg)", "value": "700 ± 400", "unit": "ng·h/mL"},
      {"measurement": "change of hepatic cholesterol ester content vs control", "setting": "APOE*3Leiden.CETP mice [1]; 3 mg/kg QD (low dose), p < 0.001", "value": "−49", "unit": "%"},
      {"measurement": "change of hepatic triglyceride content vs control", "setting": "APOE*3Leiden.CETP mice [1]; 3 mg/kg QD (low dose), p = 0.048", "value": "−32", "unit": "%"},
      {"measurement": "change of hepatic cholesterol ester content vs control", "setting": "APOE*3Leiden.CETP mice [1]; 10 mg/kg QD (high dose), p < 0.001", "value": "−61", "unit": "%"},
      {"measurement": "change of hepatic triglyceride content vs control", "setting": "APOE*3Leiden.CETP mice [1]; 10 mg/kg QD (high dose), p = 0.005", "value": "−43", "unit": "%"},
      {"measurement": "change of hepatic free cholesterol content vs control", "setting": "APOE*3Leiden.CETP mice [1]; 10 mg/kg QD, p = 0.007", "value": "−21", "unit": "%"},
      {"measurement": "change of HDL-C vs control", "setting": "APOE*3Leiden.CETP mice [2]; 3 mg/kg QD (low dose), p = 0.003", "value": "−30", "unit": "%"},
      {"measurement": "reduction of average plasma cholesterol compared to control", "setting": "APOE*3Leiden.CETP mice [2]; 3 mg/kg QD, 16 week study", "value": 37, "unit": "%"},
      {"measurement": "change of HDL-C vs control", "setting": "APOE*3Leiden.CETP mice [2]; 10 mg/kg QD (high dose), p = 0.016", "value": "−25", "unit": "%"},
      {"measurement": "reduction of average plasma cholesterol compared to control", "setting": "APOE*3Leiden.CETP mice [2]; 10 mg/kg QD, 16 week study", "value": 44, "unit": "%"},
      {"measurement": "mice that died during blood pressure measurements", "setting": "[5]; 3 mg/kg QD, t = 15 weeks", "value": "Two"},
      {"measurement": "Body weight", "setting": "[5]; 3 mg/kg", "value": "22.5 ± 2.3", "unit": "gram"},
      {"measurement": "Food intake", "setting": "[5]; 3 mg/kg", "value": 2.4, "unit": "gram/mouse/day"},
      {"measurement": "Body weight", "setting": "[5]; 10 mg/kg", "value": "22.3 ± 2.8", "unit": "gram"},
      {"measurement": "Food intake", "setting": "[5]; 10 mg/kg", "value": 2.3, "unit": "gram/mouse/day"},
      {"measurement": "effect on plaque stability", "setting": "APOE*3Leiden.CETP mice [3]; 3 mg/kg", "value": "without affecting plaque stability"},
      {"measurement": "change of necrotic core content vs control", "setting": "APOE*3Leiden.CETP mice [3]; 3 mg/kg, p = 0.001", "value": "−58", "unit": "%"},
      {"measurement": "decrease of the amount of protein in BAL fluid", "setting": "APOE*3Leiden.CETP mice [6]; 3 mg/kg QD, week 16, p = 0.029", "value": 51, "unit": "%"},
      {"measurement": "decrease of the amount of protein in BAL fluid", "setting": "APOE*3Leiden.CETP mice [6]; 10 mg/kg QD, week 16, p = 0.041", "value": 47, "unit": "%"}
    ]}
  ]
}
